From ChEMBL document CHEMBL2046355 (Bioorg Med Chem Lett, 2012)
Each block holds one molecule with its values, some of them ahead of it. The source made the active and inactive calls. The calls are words filed in the database; no cut-off is given here.

Experiments:
[1] = target: T1, Solute carrier family 12 member 5 (Homo sapiens, UniProt Q9H2X9); test: Antagonist activity at KCC2 expressed in human HEK293 cells assessed as decrease in Tl-stimulated fluorescence increase after 8 mins by fluorescence analysis; type: functional, cell-based
T1 sequence (Q9H2X9 whole entry): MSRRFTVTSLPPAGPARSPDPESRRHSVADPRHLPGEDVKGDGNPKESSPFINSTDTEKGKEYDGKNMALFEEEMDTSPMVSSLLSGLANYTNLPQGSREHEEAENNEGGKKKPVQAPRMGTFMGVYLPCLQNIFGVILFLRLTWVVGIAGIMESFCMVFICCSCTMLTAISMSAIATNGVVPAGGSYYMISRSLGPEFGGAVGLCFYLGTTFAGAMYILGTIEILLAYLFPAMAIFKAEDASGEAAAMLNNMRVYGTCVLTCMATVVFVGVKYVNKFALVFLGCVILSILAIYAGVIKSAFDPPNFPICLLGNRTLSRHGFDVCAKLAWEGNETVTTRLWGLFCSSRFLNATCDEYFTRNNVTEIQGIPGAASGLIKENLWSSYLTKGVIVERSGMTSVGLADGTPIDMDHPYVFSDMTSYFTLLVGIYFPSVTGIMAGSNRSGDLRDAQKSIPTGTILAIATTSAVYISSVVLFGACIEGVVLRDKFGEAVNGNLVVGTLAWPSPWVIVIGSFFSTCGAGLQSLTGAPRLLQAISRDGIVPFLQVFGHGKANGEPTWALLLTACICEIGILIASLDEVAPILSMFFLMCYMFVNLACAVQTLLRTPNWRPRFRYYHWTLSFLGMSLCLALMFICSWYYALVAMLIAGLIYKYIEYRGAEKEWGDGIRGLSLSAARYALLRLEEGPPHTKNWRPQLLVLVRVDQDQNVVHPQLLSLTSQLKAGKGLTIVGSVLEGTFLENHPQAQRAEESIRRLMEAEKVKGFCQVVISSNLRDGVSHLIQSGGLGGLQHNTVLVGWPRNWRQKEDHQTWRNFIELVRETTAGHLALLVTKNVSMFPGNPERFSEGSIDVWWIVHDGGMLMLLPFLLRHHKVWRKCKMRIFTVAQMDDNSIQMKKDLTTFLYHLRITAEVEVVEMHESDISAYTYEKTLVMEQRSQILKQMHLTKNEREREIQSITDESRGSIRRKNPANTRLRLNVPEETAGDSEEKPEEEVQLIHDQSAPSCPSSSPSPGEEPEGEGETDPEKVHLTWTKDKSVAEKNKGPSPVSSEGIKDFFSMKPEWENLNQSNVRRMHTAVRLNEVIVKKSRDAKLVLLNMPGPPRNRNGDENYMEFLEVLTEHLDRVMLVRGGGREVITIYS

[2] = target: T2, Solute carrier family 12 member 5 (Homo sapiens) (UniProt Q9H2X9); test: Antagonist activity at KCC2 expressed in human HEK293 cells assessed as decrease in Tl-stimulated fluorescence increase at 2 uM after 8 mins by fluorescence analysis; type: functional, cell-based
T2 sequence (whole entry): T1 sequence (Q9H2X9 whole entry)

Cytochrome P450 3A4 = Cytochrome P450 3A4 (Homo sapiens, UniProt P08684); test: Inhibition of CYP3A4 in human liver microsomes; type: ADME, Microsome
Sequence of Cytochrome P450 3A4 (P08684 whole entry): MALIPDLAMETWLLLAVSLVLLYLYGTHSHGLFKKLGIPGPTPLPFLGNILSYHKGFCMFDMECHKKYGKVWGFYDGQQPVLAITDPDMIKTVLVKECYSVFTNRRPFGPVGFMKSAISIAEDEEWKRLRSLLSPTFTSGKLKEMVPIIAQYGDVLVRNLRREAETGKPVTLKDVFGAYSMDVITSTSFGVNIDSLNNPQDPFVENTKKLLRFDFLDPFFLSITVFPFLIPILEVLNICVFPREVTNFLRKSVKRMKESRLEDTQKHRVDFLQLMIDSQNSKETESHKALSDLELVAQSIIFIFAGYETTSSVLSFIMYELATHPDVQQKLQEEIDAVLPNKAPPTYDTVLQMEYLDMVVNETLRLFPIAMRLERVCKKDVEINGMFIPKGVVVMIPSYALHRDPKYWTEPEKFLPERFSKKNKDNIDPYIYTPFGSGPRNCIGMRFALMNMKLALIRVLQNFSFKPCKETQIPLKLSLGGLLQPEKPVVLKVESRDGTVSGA

Cytochrome P450 2C9 = Cytochrome P450 2C9 (Homo sapiens, UniProt P11712); test: Inhibition of CYP2C9 in human liver microsomes; type: ADME, Microsome
Sequence of Cytochrome P450 2C9 (P11712 whole entry): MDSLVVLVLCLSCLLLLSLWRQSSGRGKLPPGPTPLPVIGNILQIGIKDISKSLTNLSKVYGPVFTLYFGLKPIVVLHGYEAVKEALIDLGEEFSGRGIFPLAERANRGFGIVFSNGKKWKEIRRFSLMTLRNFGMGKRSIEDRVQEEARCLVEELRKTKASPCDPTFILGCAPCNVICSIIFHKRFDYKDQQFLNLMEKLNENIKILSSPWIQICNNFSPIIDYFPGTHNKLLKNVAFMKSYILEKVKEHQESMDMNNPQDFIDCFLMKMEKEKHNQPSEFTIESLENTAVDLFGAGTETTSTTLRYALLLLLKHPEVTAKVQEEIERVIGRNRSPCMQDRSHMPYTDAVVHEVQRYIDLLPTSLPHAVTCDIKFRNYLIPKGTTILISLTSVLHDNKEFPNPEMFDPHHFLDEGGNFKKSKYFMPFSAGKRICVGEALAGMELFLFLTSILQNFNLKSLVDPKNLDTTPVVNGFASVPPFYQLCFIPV

Cytochrome P450 1A2 = target: T3, Cytochrome P450 1A2 (Homo sapiens, UniProt P05177); test: Inhibition of CYP1A2 in human liver microsomes; type: ADME, Microsome
T3 sequence (P05177 whole entry): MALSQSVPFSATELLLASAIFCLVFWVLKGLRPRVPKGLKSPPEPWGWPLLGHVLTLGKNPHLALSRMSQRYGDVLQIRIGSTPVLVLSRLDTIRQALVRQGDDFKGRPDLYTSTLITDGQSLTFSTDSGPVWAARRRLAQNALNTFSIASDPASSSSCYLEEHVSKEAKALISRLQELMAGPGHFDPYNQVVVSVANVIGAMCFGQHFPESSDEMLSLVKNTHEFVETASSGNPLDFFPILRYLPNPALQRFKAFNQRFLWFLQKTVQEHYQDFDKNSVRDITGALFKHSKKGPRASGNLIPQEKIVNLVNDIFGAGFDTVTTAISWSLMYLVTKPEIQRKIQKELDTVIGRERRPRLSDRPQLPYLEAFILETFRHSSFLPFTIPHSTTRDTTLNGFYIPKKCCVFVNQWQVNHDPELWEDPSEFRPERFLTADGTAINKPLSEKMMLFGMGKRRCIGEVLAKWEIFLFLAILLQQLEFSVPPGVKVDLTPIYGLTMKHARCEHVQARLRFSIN

Cytochrome P450 2D6 = Cytochrome P450 2D6 (Homo sapiens, UniProt P10635); test: Inhibition of CYP2D6 in human liver microsomes; type: ADME, Microsome
Sequence of Cytochrome P450 2D6 (P10635 whole entry): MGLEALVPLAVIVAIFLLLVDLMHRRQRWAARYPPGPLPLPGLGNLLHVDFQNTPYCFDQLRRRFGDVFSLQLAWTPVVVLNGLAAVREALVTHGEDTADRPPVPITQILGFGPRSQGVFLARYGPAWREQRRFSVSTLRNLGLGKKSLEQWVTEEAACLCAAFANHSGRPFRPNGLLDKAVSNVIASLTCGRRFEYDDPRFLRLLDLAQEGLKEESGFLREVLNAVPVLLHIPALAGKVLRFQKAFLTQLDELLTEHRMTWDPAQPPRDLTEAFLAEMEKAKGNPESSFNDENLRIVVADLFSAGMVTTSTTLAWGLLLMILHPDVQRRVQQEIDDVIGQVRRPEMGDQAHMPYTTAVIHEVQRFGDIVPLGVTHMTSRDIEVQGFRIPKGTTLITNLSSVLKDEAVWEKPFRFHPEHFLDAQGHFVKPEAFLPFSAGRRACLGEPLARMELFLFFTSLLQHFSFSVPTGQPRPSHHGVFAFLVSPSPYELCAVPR

Plasma [3] = test: Fraction unbound in rat plasma; type: ADME, cell-free
Plasma [4] = test: Fraction unbound in human plasma; type: ADME, cell-free
[5] = Clearance in rat at 1 mg/kg, iv; type: ADME, organism-based; parameters: dose 1 mg/kg, route intravenous; conditions: in vivo
[6] = Volume of distribution at steady state in rat at 1 mg/kg, iv; type: ADME, organism-based; parameters: dose 1 mg/kg, route intravenous; conditions: in vivo, read-out: Vdss
[7] = Half life in rat at 1 mg/kg, iv; type: ADME, organism-based; parameters: dose 1 mg/kg, route intravenous; conditions: in vivo
[8] = target: T2, Solute carrier family 12 member 5 (Homo sapiens); test: Antagonist activity at KCC2 expressed in human HEK293 cells assessed as [86Rb] uptake after 30 mins by scintillation counting; type: functional, cell-based
[9] = target: T4, Solute carrier family 12 member 2 (Homo sapiens, UniProt P55011); test: Antagonist activity at […] expressed in human HEK293 cells assessed as [86Rb] uptake after 30 mins by scintillation counting; type: functional, cell-based
T4 sequence (P55011 whole entry): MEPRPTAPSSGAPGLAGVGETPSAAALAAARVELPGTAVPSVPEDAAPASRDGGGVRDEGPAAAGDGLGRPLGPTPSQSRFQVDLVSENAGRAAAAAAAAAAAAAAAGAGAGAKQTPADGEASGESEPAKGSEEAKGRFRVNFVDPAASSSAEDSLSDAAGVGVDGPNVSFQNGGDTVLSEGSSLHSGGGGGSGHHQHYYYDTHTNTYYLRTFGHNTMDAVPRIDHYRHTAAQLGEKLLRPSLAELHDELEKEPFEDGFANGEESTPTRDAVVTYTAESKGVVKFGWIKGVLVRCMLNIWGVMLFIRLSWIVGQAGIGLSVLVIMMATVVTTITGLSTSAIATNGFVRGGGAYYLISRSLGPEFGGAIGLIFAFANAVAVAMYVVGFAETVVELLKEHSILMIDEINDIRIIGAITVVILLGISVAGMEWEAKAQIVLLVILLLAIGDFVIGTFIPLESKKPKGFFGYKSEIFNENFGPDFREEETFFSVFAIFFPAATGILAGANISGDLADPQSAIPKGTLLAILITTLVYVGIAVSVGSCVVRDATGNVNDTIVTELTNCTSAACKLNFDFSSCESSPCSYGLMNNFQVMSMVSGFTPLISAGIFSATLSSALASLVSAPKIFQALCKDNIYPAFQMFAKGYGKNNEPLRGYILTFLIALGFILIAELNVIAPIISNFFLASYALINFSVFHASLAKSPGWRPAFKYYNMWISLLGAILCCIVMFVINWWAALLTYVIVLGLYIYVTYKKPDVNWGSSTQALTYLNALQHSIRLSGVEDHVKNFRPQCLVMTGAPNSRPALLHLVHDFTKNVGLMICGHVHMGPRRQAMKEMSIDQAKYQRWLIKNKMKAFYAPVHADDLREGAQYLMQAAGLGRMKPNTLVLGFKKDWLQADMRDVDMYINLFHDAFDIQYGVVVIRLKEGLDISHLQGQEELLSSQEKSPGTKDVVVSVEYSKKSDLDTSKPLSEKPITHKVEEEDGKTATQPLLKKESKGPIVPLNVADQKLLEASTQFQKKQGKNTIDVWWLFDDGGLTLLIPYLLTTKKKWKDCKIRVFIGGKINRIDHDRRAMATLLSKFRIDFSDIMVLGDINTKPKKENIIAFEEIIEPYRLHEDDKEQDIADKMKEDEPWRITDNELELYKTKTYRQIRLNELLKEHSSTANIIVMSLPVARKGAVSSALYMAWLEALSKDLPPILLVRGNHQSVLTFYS

hERG (KCNH2) = hERG (KCNH2) (Homo sapiens, UniProt Q12809); test: Inhibition of human Erg at 10 uM
Sequence of hERG (KCNH2) (Q12809 whole entry): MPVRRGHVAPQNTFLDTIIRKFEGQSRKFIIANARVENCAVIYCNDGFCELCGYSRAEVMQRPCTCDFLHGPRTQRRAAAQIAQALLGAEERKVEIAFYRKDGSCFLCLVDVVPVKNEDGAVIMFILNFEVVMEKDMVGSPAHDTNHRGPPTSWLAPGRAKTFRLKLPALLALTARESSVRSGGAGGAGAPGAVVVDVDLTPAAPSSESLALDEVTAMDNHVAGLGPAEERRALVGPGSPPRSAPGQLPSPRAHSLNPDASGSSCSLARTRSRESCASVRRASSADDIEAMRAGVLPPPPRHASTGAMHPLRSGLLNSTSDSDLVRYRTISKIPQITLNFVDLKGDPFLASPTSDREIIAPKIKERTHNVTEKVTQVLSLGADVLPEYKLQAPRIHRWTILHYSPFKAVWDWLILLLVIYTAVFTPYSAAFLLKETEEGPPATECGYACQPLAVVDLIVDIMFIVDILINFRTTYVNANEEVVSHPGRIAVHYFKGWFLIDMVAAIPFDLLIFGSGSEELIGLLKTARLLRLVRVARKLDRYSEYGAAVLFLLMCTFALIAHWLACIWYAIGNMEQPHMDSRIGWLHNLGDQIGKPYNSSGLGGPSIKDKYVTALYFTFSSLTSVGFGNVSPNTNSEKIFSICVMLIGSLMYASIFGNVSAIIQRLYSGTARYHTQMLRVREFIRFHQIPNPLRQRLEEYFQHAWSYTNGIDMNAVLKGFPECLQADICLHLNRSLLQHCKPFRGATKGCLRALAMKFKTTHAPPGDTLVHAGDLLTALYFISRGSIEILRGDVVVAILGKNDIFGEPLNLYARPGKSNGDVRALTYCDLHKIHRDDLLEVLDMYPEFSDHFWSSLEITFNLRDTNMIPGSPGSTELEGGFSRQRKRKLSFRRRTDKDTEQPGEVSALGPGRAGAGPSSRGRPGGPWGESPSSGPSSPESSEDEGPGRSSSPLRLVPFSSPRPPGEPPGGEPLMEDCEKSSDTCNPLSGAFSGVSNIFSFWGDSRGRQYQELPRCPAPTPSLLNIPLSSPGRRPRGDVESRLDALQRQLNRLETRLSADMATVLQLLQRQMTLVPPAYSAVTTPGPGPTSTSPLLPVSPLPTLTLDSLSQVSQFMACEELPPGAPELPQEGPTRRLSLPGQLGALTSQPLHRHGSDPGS

[10] = Inhibition of L-type calcium channel at 10 uM
[11] = Metabolic stability of the compound in rat plasma assessed as compound remaining after 1 hr; type: ADME, cell-free; conditions: read-out: Stability
[12] = target: T5, Solute carrier family 12 member 2 (Homo sapiens) (UniProt P55011); test: Antagonist activity at […] expressed in human HEK293 cells assessed as [86Rb] uptake at 50 uM after 30 mins by scintillation counting; type: functional, cell-based; parameters: scale not given: the % may be the effect or the level left
T5 sequence (whole entry): T4 sequence (P55011 whole entry)

inhibition [2]: 46%
SMILES: Cc1csc(N(C)C(=O)C(C)Sc2ccc(-c3ccccc3)nn2)n1 (racemic)

inhibition [2]: 82%
IC50 [1]: 537 nM
IC50 (Cytochrome P450 3A4): > 30000 nM
IC50 (Cytochrome P450 2C9): > 30000 nM
IC50 (Cytochrome P450 1A2): > 30000 nM
IC50 (Cytochrome P450 2D6): 24000 nM
Fu (Plasma [3]): 1%
Fu (Plasma [4]): 2%
clearance [5]: 185 mL/min/kg
Vd [6]: 5 L/kg
half-life [7]: 26 min
Activity [8]: Active
IC50 [9]: > 50000 nM
SMILES: Cc1csc(N(C)C(=O)CSc2ccc(-c3ccccc3)nn2)n1

IC50 [1]: 177 nM
SMILES: Cc1csc(N(C(=O)CSc2ccc(-c3ccccc3)nn2)C2CCC2)n1

IC50 [1]: 61 nM
IC50 (Cytochrome P450 2C9): > 30000 nM
IC50 (Cytochrome P450 1A2): 20000 nM
IC50 (Cytochrome P450 2D6): > 30000 nM
clearance [5]: 57 mL/min/kg
Vd [6]: 0.4 L/kg
half-life [7]: 9 min
Activity [8]: Active
remaining at 1 h [11]: 6%
SMILES: Cc1csc(N(C(=O)CSc2ccc(-c3ccccc3)nn2)C2CC2)n1

IC50 [1]: 2900 nM
SMILES: Cc1csc(N(C)C(=O)CSc2ccc(-c3ccccc3)cn2)n1

inhibition [2]: 27%
SMILES: CCC(Sc1ccc(-c2ccccc2)nn1)C(=O)N(C)c1nc(C)cs1 (racemic)

The next lines start with the molecule.

SMILES: Cc1csc(N(C(=O)CSc2ccc(-c3ccccc3)nn2)C2CCCC2)n1
IC50 [1]: 1060 nM

SMILES: CCC(Sc1ccc(-c2ccccc2)nn1)C(=O)N(c1nc(C)cs1)C1CC1 (racemic) [listing 1 of 2 here]
IC50 [1]: 756 nM

SMILES: CCC(Sc1ccc(-c2ccccc2)nn1)C(=O)N(c1nc(C)cs1)C1CC1 (single isomer, unassigned; (+))
IC50 [1]: 385 nM

SMILES: CCC(Sc1ccc(-c2ccccc2)nn1)C(=O)N(c1nc(C)cs1)C1CC1 (single isomer, unassigned; (-))
inhibition [2]: 40%

SMILES: Cc1csc(NC(=O)CSc2ccc(-c3ccccc3)nn2)n1
IC50 [1]: 568 nM
inhibition at 10 µM (hERG (KCNH2)): > 50%
inhibition [10]: > 50%
IC50 [9]: > 50000 nM

SMILES: CCC(Sc1ccc(-c2ccccc2)nn1)C(=O)N(c1nc(C)cs1)C1CC1 (racemic) [listing 2 of 2 here]
inhibition [2]: 84%

SMILES: O=C(Cn1cnc2c(nnn2Cc2ccccc2)c1=O)c1ccc(Cl)cc1
IC50 [1]: 1200 nM
Activity [12]: 40%

SMILES: CCC(Sc1ccc(-c2ccccc2)nn1)C(=O)N(CC)c1nc(C)cs1 (racemic)
inhibition [2]: 45%

SMILES: CCN(C(=O)C(C)Sc1ccc(-c2ccccc2)nn1)c1nc(C)cs1 (racemic)
inhibition [2]: 57%

SMILES: Cc1csc(NC(=O)CSc2ccc(-c3ccccc3)cn2)n1
IC50 [1]: 6900 nM
